The text below walks through data of patent US20250002608A1, “TREATMENT OF PAIN” (UTI Limited Partnership, priority 2021, published 2025).

Test [1] concerns ALK. The conditions noted are these: human, in vivo; cited from earlier work.
The next test has as its system small DRG neurons. Nature of the test: Excitability of small DRG neurons exposed to ALKAL2 (current clamp). It is filed as cell-based, mouse. The conditions noted are these: for resting membrane potential (RMP): small DRG neurons, n=13. Here is the method:
DRG neurons were harvested from adult mice and enzymatically dissociated in Hank's balanced salt solution (HBSS) containing 2 mg/ml collagenase type I and 4 mg/ml dispase (Invitrogen) for 45 min at 37° C. […] Electrophysiological recordings were conducted using an external solution containing (in mM): 140.0 NaCl, 1.5 CaCl2, 2.0 MgCl2, 5.0 KCl, 10.0 HEPES, 10.0 D-glucose, pH 7.4 adjusted with NaOH, on the stage of an inverted epi-fluorescence microscope (Olympus IX51). DRG neuron were recorded based on size, knowing that TRPV1 is expressed in small neurons […], and pHluorin fluorescent signal. Action potentials were recorded using current clamp. Borosilicate glass (Harvard Apparatus Ltd.) pipettes were pulled and polished to 2-5 MQ resistance with a DMZ-Universal Puller (Zeitz-Instruments GmbH.) and filled with an internal solution containing (in mM): 140.0 KCl, 5.00 NaCl, 1 CaCl2, 1.0 EGTA, 10.0 HEPES, 1.0 MgCl2, 3.0 ATP Na2, pH 7.3 adjusted with KOH. All solutions were prepared and used at room temperature (22±2° C.) and their osmolarity adjusted to 310 mOsm. […] Recordings were performed using an Axopatch 200B amplifier (Axon Instruments, Foster City, CA, USA). Current-clamp protocols were applied using pClamp 10.4 software (Axon Instruments). […] Average DRG neuron capacitance was 12.45±0.85 pF. […] For prolonged ALKAL2 treatment, neurons were incubated with a low concentration of 10 nM for 16 hours.

For test [2], the system named is small (<20 μm) DRG neurons. As to the kind of experiment: Neurite outgrowth of DRG neurons co-cultured with ALKAL2-transfected HEK cells. It is filed as cell-based, mouse. The text has this: Previous work has shown that the ALK receptor plays a central role in the development of neural-crest derived cells and neurite outgrowth (18, 19, 37, 38). Using a co-culture system, we tested whether secreted ALKAL2 is able to activate ALK on DRG neurons, thus promoting neurite outgrowth through an autocrine/paracrine signaling process. In this assay, HEK cell monolayers seeded in the upper chamber of a transwell were transfected with ALKAL2, and then placed above acutely dissociated DRG neurons seeded into the lower chamber (FIG. 4A). DRG neurons were exposed to HEK-secreted ALKAL2 for a further 16 hours, after which, neurite growth was assessed on small and medium size neurons (FIG. 4A).
DRG neurons were harvested from adult mice and enzymatically dissociated in Hank's balanced salt solution (HBSS) containing 2 mg/ml collagenase type I and 4 mg/ml dispase (Invitrogen) for 45 min at 37° C. DRGs were rinsed twice in HBSS and once in Neurobasal A culture medium (Thermo Fisher Scientific) supplemented with 2% B-27, 10% heat-inactivated fetal bovine serum (HI-FBS), 100 μg/ml streptomycin, 100 U/ml penicillin, 100 ng/ml of Nerve Growth Factor (NGF) and 100 ng/ml glial cell-derived neurotrophic factor (GDNF) (all from Invitrogen). Individual neurons were dispersed by trituration through a fire-polished glass Pasteur pipette in 4 ml media and cultured overnight at 37° C. with 5% CO2 in 96% humidity on glass coverslips previously treated with 25% Poly-Ornithine and Laminin (both from Sigma).
For co-culture experiments, human embryonic kidney (HEK) 293 tsA-201 cells were grown to 80% confluence at 37° C. (5% CO2) in Dulbecco's modified Eagle's medium (+10% fetal bovine serum, 200 units/ml penicillin and 0.2 mg/ml streptomycin (Invitrogen, Carlsbad, CA, USA)) in the transwell of a 12-well cell culture plate (Gibco). Cells were transfected with 0.5 or 1 μg of ALKAL2 plasmid (Genomics, ABIN3292379) using the calcium phosphate method and washed 12 hours after transfection. After another 8 hours, isolated DRG neurons plated on glass coverslips were placed in the bottom chamber of the 12-well plate and the media was changed to Neurobasal A culture medium (see above). Electrophysiological recordings or immunohistochemistry were conducted 24 hours later.
For the neurite outgrowth assay, cultured DRG neurons were either treated with increasing concentrations ([…], 1 nM, 10 nM, 100 nM and 1 μM) of recombinant mouse ALKAL2 (MyBioSource LLC, MBS14253) or co-cultured with ALKAL2 expressing HEK cells (see above) in Neurobasal A medium. After 24 h, the cells were washed twice with HBSS, fixed in 4% PFA for 15 min., incubated in blocking solution (PBS+1% BSA) for 30 min. and then immunostained with anti-β-tubulin III antibody (rabbit, 1/1000, Sigma-Aldrich) overnight at 4° C. Cells were washed in PBS twice then incubated with a goat-anti rabbit IgG conjugated to Alexa Fluor 488 (1/2000, Invitrogen) for 1 h. After several washes, coverslips were mounted on slides and confocal images acquired. Alexa-488 antibody was visualized by excitation with an argon laser […] and emission detected using a long-pass 530 nm filter. Alexa-555 antibody was visualized by excitation at 543 nm with a HeNe laser, and emission detected using a 585-615 nm band-pass filter.

In test [3] the test system is DRG neurons from TRPV1-pHluorin mice. As to the kind of experiment: Current-clamp recording of DRG neurons from TRPV1-pHluorin mice exposed to capsaicin. Type of test: cell-based, mouse. The conditions noted are these: capsaicin 100 nM. Here is the method:
(§1) DRG neurons were harvested from adult mice and enzymatically dissociated in Hank's balanced salt solution (HBSS) containing 2 mg/ml collagenase type I and 4 mg/ml dispase (Invitrogen) for 45 min at 37° C. […] Electrophysiological recordings were conducted using an external solution containing (in mM): 140.0 NaCl, 1.5 CaCl2, 2.0 MgCl2, 5.0 KCl, 10.0 HEPES, 10.0 D-glucose, pH 7.4 adjusted with NaOH, on the stage of an inverted epi-fluorescence microscope (Olympus IX51). DRG neuron were recorded based on size, knowing that TRPV1 is expressed in small neurons […], and pHluorin fluorescent signal. Action potentials were recorded using current clamp. Borosilicate glass (Harvard Apparatus Ltd.) pipettes were pulled and polished to 2-5 MQ resistance with a DMZ-Universal Puller (Zeitz-Instruments GmbH.) and filled with an internal solution containing (in mM): 140.0 KCl, 5.00 NaCl, 1 CaCl2, 1.0 EGTA, 10.0 HEPES, 1.0 MgCl2, 3.0 ATP Na2, pH 7.3 adjusted with KOH. All solutions were prepared and used at room temperature (22±2° C.) and their osmolarity adjusted to 310 mOsm. […] Recordings were performed using an Axopatch 200B amplifier (Axon Instruments, Foster City, CA, USA). Current-clamp protocols were applied using pClamp 10.4 software (Axon Instruments). […] Average DRG neuron capacitance was 12.45±0.85 pF. […]

Another test has as its target T1, TRPV1 wild type (Homo sapiens, UniProt Q8NER1).
T1 construct: expressed in transfected cells; host or cells: HEK cells
As to the kind of experiment: Capsaicin-evoked TRPV1 current (I-V ramp) in HEK cells transfected with TRPV1 wild type. Type of test: cell-based. The conditions noted are these: capsaicin 100 nM, TRPV1 WT.

Another test deals with DRG neurons from WT mice. Nature of the test: Current-clamp recording of DRG neurons from WT mice exposed to capsaicin. It is filed as cell-based, mouse. The conditions noted are these: capsaicin 100 nM. The protocol:
as §1

Test [4] addresses T2, TRPV1-pHluorin (Mus musculus, UniProt Q704Y3).
T2 construct: fused on or other part: superecliptic pHluorin (ecliptic GFP, EcGFP) inserted into the extracellular turret between His and Lys (615/616; H614/K615 elsewhere in the source)
As to the kind of experiment: Capsaicin dose-response by calcium imaging on DRG neurons from TRPV1-pHluorin mice. The conditions noted are these: read-out: EC50 of dose-response curve evoked by capsaicin, room temperature (22° C.), n=28. It is filed as cell-based.

Test [5] concerns TRPV1-pHluorin. Nature of the test: Capsaicin-evoked TRPV1 current (I-V ramp) in HEK cells transfected with TRPV1-pHluorin. The conditions noted are these: capsaicin 100 nM. It is filed as cell-based.
Test [6] addresses T3, ALK (Mus musculus, UniProt P97793).
T3 construct: from tissue; host or cells: living mice, spinal dorsal horn
As to the kind of experiment: pALK immunostaining in the spinal dorsal horn after intrathecal ALKAL2. It is filed as in vivo. The conditions noted are these: 30 min following intrathecal ALKAL2 injection. The protocol: (§2) Intrathecal injections were performed in conscious mice. Briefly, mice were manually restrained, the dorsal fur of each mouse was shaved, the spinal column was arched, and a 30-gauge needle attached in a PE20 Polyethylene tube to a 25 μl Hamilton micro syringe (Hamilton, Birmingham, UK) was inserted into the subarachnoid space between the L4 and L5 vertebrae. Accurate positioning of the needle tip was confirmed by a characteristic tail-flick response of animal when the needle if correctly positioned. Intrathecal injections of 10 μl were delivered over a period of 5 seconds.

In test [7] the target is T3, ALK. Nature of the test: Thermal hyperalgesia induced by intrathecal ALKAL2. Type of test: in vivo. Here is the method: as §2
Three trials for each mouse were performed.

Test [8] has as its target anaplastic lymphoma kinase (ALK) receptor, endogenous on mouse DRG neurons and in the mouse spinal dorsal horn (mouse) (UniProt P97793). Nature of the test: cell-based or functional assay.
[9] abbreviates: ALKAL2 co-culture in the presence of Lorlatinib 1 μM.
The mark [10] stands for this setting: ALKAL2 plasmid co-culture 16 h, small DRG neurons.
The mark [11] stands for this setting: ALKAL2 transfected condition vs control.

T3 sequence (P97793 19-1621): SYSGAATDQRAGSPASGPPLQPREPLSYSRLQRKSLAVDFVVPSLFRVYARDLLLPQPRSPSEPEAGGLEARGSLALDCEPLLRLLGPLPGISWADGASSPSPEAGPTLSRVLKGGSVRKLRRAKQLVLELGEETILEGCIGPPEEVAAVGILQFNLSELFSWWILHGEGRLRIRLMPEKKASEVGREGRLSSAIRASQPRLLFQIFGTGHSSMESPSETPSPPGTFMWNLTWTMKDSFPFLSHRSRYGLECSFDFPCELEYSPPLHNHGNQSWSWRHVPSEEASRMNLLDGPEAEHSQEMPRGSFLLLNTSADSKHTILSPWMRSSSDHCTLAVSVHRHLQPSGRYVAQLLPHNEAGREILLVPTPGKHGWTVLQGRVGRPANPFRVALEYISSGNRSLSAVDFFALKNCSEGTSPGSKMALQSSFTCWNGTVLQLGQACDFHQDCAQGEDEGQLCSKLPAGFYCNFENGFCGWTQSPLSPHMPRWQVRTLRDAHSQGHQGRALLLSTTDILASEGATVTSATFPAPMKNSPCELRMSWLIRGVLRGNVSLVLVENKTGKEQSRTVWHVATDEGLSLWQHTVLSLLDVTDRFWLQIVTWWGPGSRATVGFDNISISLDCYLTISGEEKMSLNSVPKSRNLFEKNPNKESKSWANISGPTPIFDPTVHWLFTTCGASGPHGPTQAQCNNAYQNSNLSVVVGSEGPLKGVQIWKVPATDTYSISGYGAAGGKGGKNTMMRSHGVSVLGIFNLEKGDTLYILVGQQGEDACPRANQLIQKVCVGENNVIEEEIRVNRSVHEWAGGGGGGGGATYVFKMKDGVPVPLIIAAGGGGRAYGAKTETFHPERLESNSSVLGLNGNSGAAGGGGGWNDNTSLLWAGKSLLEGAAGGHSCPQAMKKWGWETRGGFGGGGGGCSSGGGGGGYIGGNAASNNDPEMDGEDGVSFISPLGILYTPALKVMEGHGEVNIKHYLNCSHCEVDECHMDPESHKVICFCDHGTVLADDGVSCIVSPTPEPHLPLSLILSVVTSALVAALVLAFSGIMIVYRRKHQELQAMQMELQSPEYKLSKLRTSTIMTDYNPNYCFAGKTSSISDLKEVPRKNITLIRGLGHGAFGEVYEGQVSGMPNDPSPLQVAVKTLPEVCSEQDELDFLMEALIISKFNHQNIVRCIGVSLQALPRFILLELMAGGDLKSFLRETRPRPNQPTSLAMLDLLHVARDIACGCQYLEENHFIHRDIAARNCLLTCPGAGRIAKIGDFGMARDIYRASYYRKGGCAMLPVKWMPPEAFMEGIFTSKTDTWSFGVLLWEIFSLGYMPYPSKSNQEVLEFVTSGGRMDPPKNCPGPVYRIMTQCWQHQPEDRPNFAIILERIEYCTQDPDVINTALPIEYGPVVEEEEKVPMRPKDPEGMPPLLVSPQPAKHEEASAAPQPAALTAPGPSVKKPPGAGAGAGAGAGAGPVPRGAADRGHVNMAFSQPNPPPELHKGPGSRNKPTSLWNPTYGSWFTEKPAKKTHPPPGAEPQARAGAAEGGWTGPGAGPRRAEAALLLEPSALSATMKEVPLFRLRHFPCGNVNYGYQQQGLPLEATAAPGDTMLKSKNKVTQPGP
anaplastic lymphoma kinase (ALK) receptor, endogenous on mouse DRG neurons and in the mouse spinal dorsal horn (mouse), sequence (P97793 19-1621): as above
T1 sequence (Q8NER1 whole entry, species assumed): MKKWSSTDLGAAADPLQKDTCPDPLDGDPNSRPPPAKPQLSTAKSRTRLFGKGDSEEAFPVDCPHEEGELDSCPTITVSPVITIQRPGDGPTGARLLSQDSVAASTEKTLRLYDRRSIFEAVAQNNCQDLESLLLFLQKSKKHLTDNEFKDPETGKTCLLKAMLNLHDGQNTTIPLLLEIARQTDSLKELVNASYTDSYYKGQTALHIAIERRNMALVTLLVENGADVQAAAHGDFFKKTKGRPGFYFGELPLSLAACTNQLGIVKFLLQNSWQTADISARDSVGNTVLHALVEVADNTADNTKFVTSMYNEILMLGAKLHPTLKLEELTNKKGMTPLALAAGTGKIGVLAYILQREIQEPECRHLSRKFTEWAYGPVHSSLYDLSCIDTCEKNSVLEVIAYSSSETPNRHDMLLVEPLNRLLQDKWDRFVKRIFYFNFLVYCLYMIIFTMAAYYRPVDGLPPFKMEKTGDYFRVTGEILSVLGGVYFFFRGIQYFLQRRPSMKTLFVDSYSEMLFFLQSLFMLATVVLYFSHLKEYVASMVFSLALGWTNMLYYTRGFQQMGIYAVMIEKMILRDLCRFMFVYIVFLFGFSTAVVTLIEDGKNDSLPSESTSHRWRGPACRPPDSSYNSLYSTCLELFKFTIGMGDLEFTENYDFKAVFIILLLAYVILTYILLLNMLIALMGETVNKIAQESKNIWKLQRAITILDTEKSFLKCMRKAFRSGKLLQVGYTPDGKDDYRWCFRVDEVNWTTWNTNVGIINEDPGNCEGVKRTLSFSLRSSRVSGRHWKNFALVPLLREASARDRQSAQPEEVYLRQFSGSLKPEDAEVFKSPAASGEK
T2 sequence (Q704Y3 1-615 limits assumed): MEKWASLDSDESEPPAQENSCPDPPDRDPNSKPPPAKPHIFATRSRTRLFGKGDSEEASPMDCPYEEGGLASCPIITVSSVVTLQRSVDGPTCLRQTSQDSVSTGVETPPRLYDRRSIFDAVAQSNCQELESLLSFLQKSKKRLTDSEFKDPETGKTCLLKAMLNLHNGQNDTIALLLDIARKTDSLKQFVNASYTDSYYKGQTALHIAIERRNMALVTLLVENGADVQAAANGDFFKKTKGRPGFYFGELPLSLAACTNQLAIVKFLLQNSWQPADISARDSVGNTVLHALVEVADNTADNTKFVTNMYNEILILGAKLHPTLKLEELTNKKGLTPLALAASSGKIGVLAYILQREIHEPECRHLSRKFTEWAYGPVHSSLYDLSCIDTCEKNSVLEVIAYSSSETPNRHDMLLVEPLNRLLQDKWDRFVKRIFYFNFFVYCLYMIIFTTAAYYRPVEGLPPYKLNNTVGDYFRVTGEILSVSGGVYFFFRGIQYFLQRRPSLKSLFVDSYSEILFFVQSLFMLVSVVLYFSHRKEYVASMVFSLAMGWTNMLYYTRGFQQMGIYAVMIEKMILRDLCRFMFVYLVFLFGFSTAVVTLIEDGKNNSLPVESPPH
T2 sequence (Q704Y3 616-839 limits assumed): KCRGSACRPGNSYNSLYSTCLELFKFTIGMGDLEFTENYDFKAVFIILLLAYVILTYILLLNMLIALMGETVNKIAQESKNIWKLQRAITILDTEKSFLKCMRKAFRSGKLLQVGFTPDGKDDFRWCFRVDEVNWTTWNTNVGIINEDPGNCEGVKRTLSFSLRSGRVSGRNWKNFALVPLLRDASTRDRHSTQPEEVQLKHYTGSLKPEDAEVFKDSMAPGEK

Consider `Cc1cc(Nc2ncc(Cl)c(Nc3ccccc3S(=O)(=O)C(C)C)n2)c(OC(C)C)cc1C1CCNCC1` [Ceritinib], for which the “effect on pain in NSCL cancer patients” value with ALK [1] was “could reduce chest, arm and shoulder pain”.
Take `C[C@H]1Oc2cc(cnc2N)-c2c(nn(C)c2C#N)CN(C)C(=O)c2ccc(F)cc21` [Lorlatinib]: in the test on small DRG neurons (ALKAL2+Lorlatinib group, n=9), the “action potential (AP) threshold” value was −31.59±1.76 mV. Also, in the test with small DRG neurons (ALKAL2+Lorlatinib group), the “resting membrane potential (RMP)” value is reported as −54.5±1.53 mV. Besides, in [2] (setting [9]), the neurites per neuron is recorded as 8.7±1.9, the “number of branch points per neuron” value is recorded as 3.6±0.5 and the “total neurite length per neuron” value was 83±8.8 μm.
As to `COc1cc(CNC(=O)CCCC/C=C/C(C)C)ccc1O` [capsaicin], the “resting membrane potential after application of capsaicin” value is −38.01±2.17 mV in test [3] and −36.61±1.83 mV in the test on DRG neurons from WT mice. The entries for the “AP frequency after capsaicin” value (in [3] (400 pA current injection); with DRG neurons from WT mice (400 pA current injection)) were 17.22±0.84 Hz and 18.56±2.44 Hz, respectively. Besides, the entries for the “peak inward current at −100 mV” value on TRPV1 wild type and with TRPV1-pHluorin [5] were −10.2±1.63 pA/pF and −7.33±2.91 pA/pF, respectively. In addition, the “peak outward current at +100 mV” value on TRPV1 wild type stood at 62.82±11.72 pA/pF; in the test on TRPV1-pHluorin [5], 61.36±11.97 pA/pF. Besides, the EC50 (in general, the concentration giving half of the maximal effect) on TRPV1-pHluorin [4] was 1.06 ± 0.09 µM.

B1: ALKAL2: ligand of the ALK receptor; recombinant mouse ALKAL2 or secreted by HEK cells transfected with ALKAL2 plasmid (protein)
chain: QSRGPADRQTLLRLLVELVQELKKFHIGDSKRLQLLGESDFALGRREATDYGADQEEQRVEIVPRDLRMKDKFLKHLTGPLYFSPKCSKHFHRLYHNTRDCTIPAYYKRCARLLTRLAVSPMCMER
For the molecule B1, the “action potential (AP) threshold” value with small DRG neurons (ALKAL2 group, n=11) was −40.57±2.88 mV. Also, the “resting membrane potential (RMP)” value with small DRG neurons (ALKAL2 group) is reported as −55.15±2.21 mV. Moreover, in the test on small DRG neurons (recombinant ALKAL2 for 16 h (10 nM)), the “AP frequency evoked by ascending steps of injected current” value is “pronounced increase”. Further, the “pALK in the spinal dorsal horn” value with ALK [6] is “increase in pALK”. For the same molecule, in test [2] (setting [10]), the “number of branch points per neuron” value is reported as 8.9±0.9, the “total neurite length per neuron” value worked out at 267.1±2.2 μm and the “total neurites per neuron” value stood at 18.6±1.2. Further, in test [2] (setting [11]), the “increase in the total neurite length per neuron” value is “five-fold increase”; the “increase in the total number of neurites (primary and secondary branches) and branching points” value is “two-fold increase”. The “time after administration at which thermal hypersensitivity is back to baseline” value with ALK [7] (intrathecal ALKAL2, n=5 each group) turned out to be 72 h. Besides, the “thermal hyperalgesia in naïve mice” value with ALK [7] (recombinant ALKAL2 intrathecal, 0.01, 0.1, 1 uM) is on record as “induced thermal hyperalgesia lasting several hours in a dose-dependent manner”.

B2: ALKAL2 secreted by HEK 293 tsA-201 cells transfected with ALKAL2 plasmid (Genomics, ABIN3292379) (ligand, UniProt Q6UX46 25-152, looked up, species assumed)
ALK and LTK ligand 2: GAEPREPADGQALLRLVVELVQELRKHHSAEHKGLQLLGRDCALGRAEAAGLGPSPEQRVEIVPRDLRMKDKFLKHLTGPLYFSPKCSKHFHRLYHNTRDCTIPAYYKRCARLLTRLAVSPVCMEDKQ
In test [8], B2 registered a total neurite length per neuron of 267 µm; a total neurite length per neuron, transwell co-culture of 5 fold; a total neurites in small (<20 µm) DRG neurons (neurites per neuron) of 18.6.
